Measurements: patent publication US20120244567A1, “HUMAN EMBRYONIC STEM CELLS FOR HIGH THROUGHOUT DRUG SCREENING” (BUCK INSTITUTE FOR RESEARCH ON AGING, priority 2009, published 2012)
Counter-ions that a name gives are not always drawn.

Tested on: dopaminergic neurons
Settings: enriched in treated DA neurons
Description: RNAs isolated from NSCs and neurons with and without drug treatments were hybridized to Illumina HumanRef-8 BeadChip (Illumina, Inc., San Diego, Calif., performed by Microarray core facility at the Burnham Institute for Medical Research). The Illumina array data were normalized by the quantile method, and then transformed log 2 ratio values for a zero mean for expression values of each gene across all samples. The statistical and bioinformatics analyses were conducted by using R and the bioconductor package (www.bioconductor.org). The gene set enrichment analysis was conducted using the GSEA software (www.broad.mit.edu/gsea).
The comparative results are then measured by a non-parametric, running sum statistic termed the enrichment score. The enrichment score significance is assessed by 1,000 permutation tests to compute the enrichment p-value.

CCCCc1oc2ccccc2c1C(=O)c1cc(I)c(OCCN(CC)CC)c(I)c1 [Amiodarone Hydrochloride]
Nes: Secondary Active Transmembrane Transporter Activity (Nom P-Val 0): 1.633 | Nes: Protein Serine Threonine Kinase Activity (Nom P-Val 0.027778): 1.386 | Nes: Sequence Specific Dna Binding (Nom P-Val 0.056338): 1.388 | Nes: Phosphotransferase Activity Alcohol Group As Acceptor (Nom P-Val 0.059524): 1.237 | Nes: Anion Transmembrane Transporter Activity (Nom P-Val 0.065574): 1.432 | Nes: Lipase Activity (Nom P-Val 0.067797): 1.422 | Nes: Active Transmembrane Transporter Activity (Nom P-Val 0.082192): 1.376 | Nes: Receptor Signaling Protein Serine Threonine Kinase Activity (Nom P-Val 0.157895): 1.268 | Nes: Protein Kinase Activity (Nom P-Val 0.176471): 1.196 | Nes: Structural Constituent Of Muscle (Nom P-Val 0.207547): 1.208 | Nes: Structure Specific Dna Binding (Nom P-Val 0.230769): 1.183 | Nes: Receptor Signaling Protein Activity (Nom P-Val 0.236842): 1.149 | Nes: Ligase Activity Forming Carbon Nitrogen Bonds (Nom P-Val 0.242857): 1.127 | Nes: Small Conjugating Protein Ligase Activity (Nom P-Val 0.243243): 1.144 | Nes: Ligase Activity (Nom P-Val 0.25): 1.14 | Nes: Phosphoric Diester Hydrolase Activity (Nom P-Val 0.25): 1.183 | Nes: Rhodopsin Like Receptor Activity (Nom P-Val 0.25): 1.144 | Nes: Small Protein Conjugating Enzyme Activity (Nom P-Val 0.257576): 1.146 | Nes: Deoxyribonuclease Activity (Nom P-Val 0.258621): 1.315 | Nes: Acid Amino Acid Ligase Activity (Nom P-Val 0.28): 1.18 | Nes: Ubiquitin Protein Ligase Activity (Nom P-Val 0.301587): 1.139 | Nes: Atp Binding (Nom P-Val 0.318841): 1.077 | Nes: Atpase Activity Coupled To Movement Of Substances (Nom P-Val 0.355932): 1.065 | Nes: Dna Binding (Nom P-Val 0.359551): 1.034 | Nes: Nuclease Activity (Nom P-Val 0.360656): 1.072 | Nes: Hydrogen Ion Transmembrane Transporter Activity (Nom P-Val 0.366667): 1.078 | Nes: Udp Glycosyltransferase Activity (Nom P-Val 0.366667): 1.093 | Nes: Kinase Activity (Nom P-Val 0.367816): 1.036 | Nes: Rna Polymerase Ii Transcription Factor Activity (Nom P-Val 0.371429): 1.042 | Nes: Hydrolase Activity Acting On Acid Anhydrides Catalyzing Transmembrane Movement Of Substances (Nom P-Val 0.376812): 1.094 | Nes: Double Stranded Dna Binding (Nom P-Val 0.37931): 1.072 | Nes: Enzyme Activator Activity (Nom P-Val 0.382353): 1.049 | Nes: Transmembrane Receptor Activity (Nom P-Val 0.382716): 1.055 | Nes: Inorganic Cation Transmembrane Transporter Activity (Nom P-Val 0.40625): 1.065 | Nes: Enzyme Inhibitor Activity (Nom P-Val 0.409091): 1.052 | Nes: Transferase Activity Transferring Groups Other Than Amino Acyl Groups (Nom P-Val 0.415385): 1.05 | Nes: Endonuclease Activity (Nom P-Val 0.419355): 0.9859 | Nes: Cytokine Activity (Nom P-Val 0.421875): 1.063 | Nes: Oxidoreductase Activity Acting On Ch Oh Group Of Donors (Nom P-Val 0.424242): 1.054 | Nes: Oxidoreductase Activity Acting On The Ch Ch Group Of Donors (Nom P-Val 0.428571): 1.028 | Nes: Primary Active Transmembrane Transporter Activity (Nom P-Val 0.430556): 1.056 | Nes: Gtpase Activity (Nom P-Val 0.442857): 1.015 | Nes: Transferase Activity Transferring Acyl Groups (Nom P-Val 0.451613): 1.003 | Nes: Damaged Dna Binding (Nom P-Val 0.45283): 1.036 | Nes: Phosphatase Regulator Activity (Nom P-Val 0.467742): 1.042 | Nes: N Acetyltransferase Activity (Nom P-Val 0.473684): 1.019 | Nes: Structural Constituent Of Cytoskeleton (Nom P-Val 0.482759): 0.9708 | Nes: Adenyl Ribonucleotide Binding (Nom P-Val 0.506667): 0.9848 | Nes: G Protein Coupled Receptor Activity (Nom P-Val 0.514706): 0.9852 | Nes: Protease Inhibitor Activity (Nom P-Val 0.516667): 0.9864 | Nes: Transmembrane Receptor Protein Kinase Activity (Nom P-Val 0.516667): 0.965 | Nes: N Acyltransferase Activity (Nom P-Val 0.519231): 0.9889 | Nes: Enzyme Regulator Activity (Nom P-Val 0.520548): 0.9793 | Nes: Hormone Activity (Nom P-Val 0.523077): 0.9749 | Nes: General Rna Polymerase Ii Transcription Factor Activity (Nom P-Val 0.530612): 0.9238 | Nes: Pyrophosphatase Activity (Nom P-Val 0.54321): 0.9536 | Nes: Purine Ribonucleotide Binding (Nom P-Val 0.5625): 0.9577 | Nes: Receptor Activity (Nom P-Val 0.5625): 0.9738 | Nes: Transferase Activity Transferring Sulfur Containing Groups (Nom P-Val 0.566667): 0.9403 | Nes: Magnesium Ion Binding (Nom P-Val 0.567568): 0.9401 | Nes: Integrin Binding (Nom P-Val 0.571429): 0.9141 | Nes: Substrate Specific Transporter Activity (Nom P-Val 0.573171): 0.929 | Nes: Acetyltransferase Activity (Nom P-Val 0.6): 0.9474 | Nes: Single Stranded Dna Binding (Nom P-Val 0.605634): 0.9533 | Nes: Protein Homodimerization Activity (Nom P-Val 0.621212): 0.8817 | Nes: Protein Domain Specific Binding (Nom P-Val 0.628571): 0.9357 | Nes: Lipid Transporter Activity (Nom P-Val 0.62963): 0.9194 | Nes: Protein Dimerization Activity (Nom P-Val 0.636364): 0.9248 | Nes: Ion Transmembrane Transporter Activity (Nom P-Val 0.64): 0.9276 | Nes: Transferase Activity Transferring Hexosyl Groups (Nom P-Val 0.642857): 0.9266 | Nes: Nucleotide Binding (Nom P-Val 0.643836): 0.9324 | Nes: Transferase Activity Transferring Phosphorus Containing Groups (Nom P-Val 0.64557): 0.9499 | Nes: Zinc Ion Binding (Nom P-Val 0.647059): 0.896 | Nes: Translation Regulator Activity (Nom P-Val 0.661017): 0.8764 | Nes: Translation Factor Activity Nucleic Acid Binding (Nom P-Val 0.681159): 0.8454 | Nes: Carbohydrate Binding (Nom P-Val 0.688525): 0.8882 | Nes: Adenyl Nucleotide Binding (Nom P-Val 0.694118): 0.8847 | Nes: Microtubule Binding (Nom P-Val 0.696429): 0.8123 | Nes: Substrate Specific Transmembrane Transporter Activity (Nom P-Val 0.697368): 0.9071 | Nes: Transcription Cofactor Activity (Nom P-Val 0.7): 0.8775 | Nes: Transcription Coactivator Activity (Nom P-Val 0.708333): 0.8777 | Nes: Sulfotransferase Activity (Nom P-Val 0.719298): 0.88 | Nes: Endopeptidase Activity (Nom P-Val 0.720588): 0.8136 | Nes: Metallopeptidase Activity (Nom P-Val 0.733333): 0.8731 | Nes: Neurotransmitter Binding (Nom P-Val 0.754717): 0.789 | Nes: Neurotransmitter Receptor Activity (Nom P-Val 0.757576): 0.7972 | Nes: Lyase Activity (Nom P-Val 0.758065): 0.8646 | Nes: Transmembrane Transporter Activity (Nom P-Val 0.759494): 0.8985 | Nes: Transcription Repressor Activity (Nom P-Val 0.76): 0.8555 | Nes: Nucleoside Triphosphatase Activity (Nom P-Val 0.761905): 0.8734 | Nes: Purine Nucleotide Binding (Nom P-Val 0.763158): 0.861 | Nes: Hydrolase Activity Acting On Acid Anhydrides (Nom P-Val 0.770115): 0.8688 | Nes: Motor Activity (Nom P-Val 0.77193): 0.7716 | Nes: Calcium Channel Activity (Nom P-Val 0.781818): 0.7534 | Nes: Hydro Lyase Activity (Nom P-Val 0.792453): 0.773 | Nes: Calcium Ion Binding (Nom P-Val 0.805556): 0.7913 | Nes: Hydrolase Activity Acting On Carbon Nitrogen But Not Peptide Bonds In Linear Amides (Nom P-Val 0.826923): 0.6663 | Nes: Transmembrane Receptor Protein Tyrosine Kinase Activity (Nom P-Val 0.828947): 0.7856 | Nes: Ion Binding (Nom P-Val 0.833333): 0.813 | Nes: Molecular Adaptor Activity (Nom P-Val 0.84507): 0.7682 | Nes: Gtp Binding (Nom P-Val 0.848485): 0.769 | Nes: Guanyl Nucleotide Exchange Factor Activity (Nom P-Val 0.857143): 0.7708 | Nes: Carbon Oxygen Lyase Activity (Nom P-Val 0.86): 0.7402
